# Values joined by “and” are separate entries in the source; they are usually repeats but may differ in a detail not shown here. Equal entries are not always repeated. Where two headings read alike, the source gives them in different places.
# Legend:
# [1] = target: T1, human MAO-A (Homo sapiens, UniProt P21397); test: Inhibition kinetics and time course of MAO-A inhibition; format: biochemical; settings: for reversibility of MAO-A inhibition: time course, absorbance of 4-hydroxyquinoline at 316 nm, inhibitor close to IC50
# T1 construct: purchased Sigma Aldrich; host or cells: insect cells infected with baculovirus (microsomes)
# T1 sequence (P21397 1-527): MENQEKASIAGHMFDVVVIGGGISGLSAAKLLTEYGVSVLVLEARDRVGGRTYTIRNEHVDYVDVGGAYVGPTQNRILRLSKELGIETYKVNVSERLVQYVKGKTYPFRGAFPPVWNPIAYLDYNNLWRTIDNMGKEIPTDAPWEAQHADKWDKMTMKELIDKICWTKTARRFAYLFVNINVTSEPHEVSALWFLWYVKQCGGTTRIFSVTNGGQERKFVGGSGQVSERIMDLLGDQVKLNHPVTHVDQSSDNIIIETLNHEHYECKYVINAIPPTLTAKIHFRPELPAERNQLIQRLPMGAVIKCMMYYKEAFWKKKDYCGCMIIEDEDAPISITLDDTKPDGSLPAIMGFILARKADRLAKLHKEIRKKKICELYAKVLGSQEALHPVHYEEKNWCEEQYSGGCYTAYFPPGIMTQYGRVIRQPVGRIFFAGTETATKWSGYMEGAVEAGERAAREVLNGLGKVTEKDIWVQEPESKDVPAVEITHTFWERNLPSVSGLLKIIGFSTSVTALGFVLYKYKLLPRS
# Source text: For the sake of clarity, the position of the Mannich base (-CH2NR2) on the main coumarin core will be indicated as C8, whereas the positions of Cl or Br and OMe on the 4-coumarin-3-yl moiety will be indicated as C6′ and C8′.
# Time courses of MAO-A inhibition by 2b and 5b, using a spectrophotometric assay measuring the absorbance of 4-
# (1 picture or pasted object on this page, not shown here)
# [2] = target: T1, human MAO-A; test: biochemical; format: biochemical; settings: for inhibition at 10 µM / huMAO-A % inhibition: at 10 µM concentration, mean ± SD
# Protocol: (§1) The inhibition assays of human monoamine oxidases were conducted using a fluorescence-based method with kynuramine as a non-selective substrate for each isoform, MAO-A/B [44, 45, 46]. Recombinant human MAO-A and MAO-B (microsomes from insect cells infected with baculovirus; Sigma Aldrich, St. Louis, MO, USA) (Merk Life Science S.r.l., Milan, Italy) were used. The measurements were performed in triplicate in black round-bottom polystyrene 96-well plates (Greiner Bio-One, Kremsmünster, Austria). […] In the MAO inhibition assays, all compounds were initially screened at a concentration of 10 µM. Each of them was preincubated at 37 °C for 20 min with 50 µM kynuramine in a phosphate buffer (PBS, 0.1 M, pH 8.0), adjusted to 0.39 osmolarity with KCl. After adding recombinant human MAO-A/B (250 U/mg and 59 U/mg, respectively) and incubating for another 30 min, NaOH was added. The fluorescence was measured at excitation/emission wavelengths of 310/400 nm. […] The IC50 is reported as the mean ± SD of three independent experiments, each performed in duplicate.
# [3] = target: T2, human huMAO-B (Homo sapiens, UniProt P27338); test: biochemical; format: biochemical; settings: for inhibition at 10 µM / huMAO-B % inhibition: at 10 µM concentration, mean ± SD
# T2 construct: purchased Sigma Aldrich; host or cells: insect cells infected with baculovirus (microsomes)
# T2 sequence (P27338 1-520): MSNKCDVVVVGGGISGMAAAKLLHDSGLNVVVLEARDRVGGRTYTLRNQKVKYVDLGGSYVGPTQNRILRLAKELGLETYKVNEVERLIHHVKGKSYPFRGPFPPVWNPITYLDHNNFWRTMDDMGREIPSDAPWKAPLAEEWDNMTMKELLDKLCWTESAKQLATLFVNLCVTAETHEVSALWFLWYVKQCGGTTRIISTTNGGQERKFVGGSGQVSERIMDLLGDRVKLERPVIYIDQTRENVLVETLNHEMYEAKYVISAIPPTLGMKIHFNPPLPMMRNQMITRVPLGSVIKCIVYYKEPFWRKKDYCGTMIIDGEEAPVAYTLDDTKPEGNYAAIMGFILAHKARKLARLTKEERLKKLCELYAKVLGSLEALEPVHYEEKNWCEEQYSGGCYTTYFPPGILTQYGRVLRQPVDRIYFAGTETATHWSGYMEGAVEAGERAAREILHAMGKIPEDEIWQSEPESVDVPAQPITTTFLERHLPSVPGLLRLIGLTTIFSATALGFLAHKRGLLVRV
# Protocol: as §1
# [4] = target: T3, electric eel eeAChE (Electrophorus electricus, UniProt O42275); test: biochemical; settings: for inhibition at 10 µM / eeAChE % inhibition: at 10 µM concentration, mean ± SD; for IC50: mean ± SD of three independent determinations, ~10 means 50–60% inhibition at 10 µM
# T3 construct: Acetylcholinesterase from electric eel and butyrylcholinesterase from equine serum (Sigma Aldrich) were employed; purchased Sigma Aldrich; host or cells: electric eel (natural source)
# T3 sequence (O42275 24-633): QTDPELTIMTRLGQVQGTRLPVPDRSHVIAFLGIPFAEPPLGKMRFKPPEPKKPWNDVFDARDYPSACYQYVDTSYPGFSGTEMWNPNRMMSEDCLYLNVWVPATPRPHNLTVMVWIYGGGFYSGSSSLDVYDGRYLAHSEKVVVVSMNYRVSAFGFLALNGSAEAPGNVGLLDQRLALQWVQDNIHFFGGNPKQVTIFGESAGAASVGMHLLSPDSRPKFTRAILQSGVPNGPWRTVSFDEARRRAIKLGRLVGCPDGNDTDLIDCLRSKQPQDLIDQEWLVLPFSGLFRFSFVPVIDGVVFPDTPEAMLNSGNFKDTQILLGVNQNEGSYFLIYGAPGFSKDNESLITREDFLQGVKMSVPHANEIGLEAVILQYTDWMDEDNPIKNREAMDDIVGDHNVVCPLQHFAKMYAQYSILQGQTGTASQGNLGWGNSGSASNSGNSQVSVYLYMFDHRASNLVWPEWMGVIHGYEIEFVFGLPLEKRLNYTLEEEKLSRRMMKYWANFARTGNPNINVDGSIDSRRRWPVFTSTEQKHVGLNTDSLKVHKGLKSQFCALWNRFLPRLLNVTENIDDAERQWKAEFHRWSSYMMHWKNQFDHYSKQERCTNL
# [5] = target: T4, horse serum eqBChE (Equus caballus, UniProt P81908); test: biochemical; format: biochemical; settings: for inhibition at 10 µM / eqBChE % inhibition / eqBChE inhibition class: at 10 µM concentration
# T4 construct: Acetylcholinesterase from electric eel and butyrylcholinesterase from equine serum (Sigma Aldrich) were employed; purchased Sigma Aldrich; host or cells: equine serum
# T4 sequence (P81908 whole entry): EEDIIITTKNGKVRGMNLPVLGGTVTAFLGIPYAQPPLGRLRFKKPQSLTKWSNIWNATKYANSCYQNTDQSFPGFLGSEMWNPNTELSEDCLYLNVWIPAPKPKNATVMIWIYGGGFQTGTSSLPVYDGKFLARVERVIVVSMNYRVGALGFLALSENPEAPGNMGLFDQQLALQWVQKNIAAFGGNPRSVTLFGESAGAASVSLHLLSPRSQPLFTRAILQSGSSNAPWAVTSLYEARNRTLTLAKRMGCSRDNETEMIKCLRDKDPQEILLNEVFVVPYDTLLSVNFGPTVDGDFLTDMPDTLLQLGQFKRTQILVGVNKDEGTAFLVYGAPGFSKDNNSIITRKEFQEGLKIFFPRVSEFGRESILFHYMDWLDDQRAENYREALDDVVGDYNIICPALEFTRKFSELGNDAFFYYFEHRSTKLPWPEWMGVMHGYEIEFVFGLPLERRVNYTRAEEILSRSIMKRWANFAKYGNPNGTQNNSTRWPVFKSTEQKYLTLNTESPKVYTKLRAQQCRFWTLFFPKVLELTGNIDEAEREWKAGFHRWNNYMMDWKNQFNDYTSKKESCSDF
# Protocol: (§2) Cholinesterase inhibition assays were carried out using the Ellman spectrophotometric method, modified for a 96-well plate format. Acetylcholinesterase from electric eel and butyrylcholinesterase from equine serum (Sigma Aldrich) were employed. The measurements were performed in triplicate using clear, flat-bottom polystyrene plates (Greiner Bio-One).
# [6] = Kinetic solubility in aqueous buffers (RP-HPLC); format: physicochemical; settings: for solubility at 2 h: PBS buffer, 25 °C, pH 7.4, aqueous buffer, kinetic from dmso stock, PBS (50 mM, pH 7.4, 0.15 M KCl) at 25 ± 1 °C, n = 3, read-out: Solubility Exp.
# Protocol: Water solubility and lipophilicity parameters were measured following previously reported methods. […] The mixture was then separated by centrifugation at 2500 rpm for 3 min. Immediately after filtration, 100 µL of the filtrate was mixed with an equal volume of a 1:1 (v/v) DMSO and PBS (50 mM, pH 7.4, KCl 0.15 M) or HCl (0.01 M, pH 2, KCl 0.15 M) solution to prevent precipitation from the saturated solution and subsequently analyzed by HPLC. The peak area was compared to a calibration curve of the tested compound in MeOH. The analytical parameters were set as follows. Mobile phase: MeOH/water pH 2.8 (acetic acid 0.5% v/v) at different percentages depending on the retention time of each test compound; stationary phase: Phenomenex, Kinetex 5 µ, C8, (150 × 3 mm); flux: […]; injection: 2 µL; λ 330 nm. The analyses were performed on the Agilent HPLC 1260 Infinity Series Integrated System (Agilent Technologies, Milan, Italy).
# [7] = Lipophilicity by RP-HPLC (log k'w); format: physicochemical; settings: C18, extrapolated to 100% water mobile phase
# Protocol: The lipophilicity of the five compounds in Table 4 was assessed by calculation and experimental approaches. As a calculated lipophilicity parameter (log Pcalc), we took from the SwissADME free website (http://www.swissadme.ch) the ‘Consensus Log Po/w’, that is, the arithmetic mean of octanol/water log Ps calculated by five methods (iLOGP, XLOGP3, WLOGP, MLOGP, and SILICOS-IT).
# The lipophilicity parameters were determined by an RP-HPLC technique. In short, methanolic solutions of the examined compounds (1 mg·mL^−1) were analyzed by the Agilent 1260 infinite HPLC system (Agilent Technologies, Milan, Italy) equipped with a diode array detector (DAD), using a Phenomenex C18-column (Kinetex 5 μ, 100 Å, 150 × 3 mm) as the stationary phase and MeOH/water buffer mobile phases with different v/v composition (i.e., mobile phases containing 0.05 increments of MeOH volume fractions in 10 mM ammonium formate buffer at pH 4.5; φMeOH ranging between 0.70 and 0.20). The chromatographic measurements were carried out at 25 ± 1 °C, flow rate of 0.5 mL·min^−1, and detection at λ 330 nm. The log of capacity factors of each compound at different mobile phase compositions was calculated (log k′ = log (tR − t0)/t0, where tR represents the retention time of the solute and t0 is the column dead time). For each compound, the equation of the linear relationship between log k′ and φMeOH (R^2 > 0.991) on at least five datapoints, each from duplicate, was derived by regression analysis and the intercept at the y-axis (i.e., φMeOH = 0) calculated as the lipophilicity parameter log k′w.
# [8] = target: human huAChE (Homo sapiens, UniProt P22303); test: biochemical; format: biochemical
# Sequence of human huAChE (P22303 32-614): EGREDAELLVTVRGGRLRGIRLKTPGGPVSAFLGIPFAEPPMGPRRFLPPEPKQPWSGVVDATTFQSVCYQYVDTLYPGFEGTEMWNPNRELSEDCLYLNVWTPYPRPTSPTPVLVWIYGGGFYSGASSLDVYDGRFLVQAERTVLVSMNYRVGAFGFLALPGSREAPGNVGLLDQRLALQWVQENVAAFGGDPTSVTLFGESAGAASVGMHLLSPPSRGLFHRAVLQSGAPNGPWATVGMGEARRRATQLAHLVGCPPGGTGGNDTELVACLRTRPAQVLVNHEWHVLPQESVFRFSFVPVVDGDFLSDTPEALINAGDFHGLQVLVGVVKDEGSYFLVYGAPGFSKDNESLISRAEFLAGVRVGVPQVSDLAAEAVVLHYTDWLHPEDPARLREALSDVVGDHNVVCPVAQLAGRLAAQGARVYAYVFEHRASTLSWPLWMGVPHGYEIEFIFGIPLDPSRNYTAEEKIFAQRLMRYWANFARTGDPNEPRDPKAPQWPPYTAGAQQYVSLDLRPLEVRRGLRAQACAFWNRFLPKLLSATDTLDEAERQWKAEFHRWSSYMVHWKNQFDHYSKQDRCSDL
# Protocol: The inhibition of human huAChE was also evaluated for five compounds.
# as §2
# [9] = read-out: eqBChE inhibition class
# [10] = mean ± SD, read-out: eqBChE % inhibition
# [11] = mean ± SD of three independent determinations, ~10 means 50–60% inhibition at 10 µM
smiles,measurement,setting,value
"C#CCN(C)CCCOc1ccc(Cl)cc1Cl [Clorgiline, reference compound]",reversibility of MAO-A inhibition,[1],completely flattened
"CN(C)Cc1c(O)ccc2c(-c3cc4ccccc4oc3=O)cc(=O)oc12 [Compound 2a, 8-((dimethylamino)methyl)-4-(2-oxo-2H-chromen-3-yl)-7-hydroxy-2H-chromen-2-one]",IC50,[2],8.3 ± 0.36 µM
same,inhibition at 10 µM,[3],36%
same,inhibition at 10 µM,[4],22%
same,inhibition at 10 µM,[5]; [9],< 10%
same,solubility at 2 h,[6],183 µM
same,"experimental solubility in PBS pH 7.4, times higher than calculated with the ESOL model",[6]; PBS pH 7.4 vs ESOL,two
same,Log k’w (polycratic capacity factor),[7],2.11
"COc1cccc2cc(-c3cc(=O)oc4c(CN(C)C)c(O)ccc34)c(=O)oc12 [Compound 2d, 8-((dimethylamino)methyl)-4-(8-methoxy-2-oxo-2H-chromen-3-yl)-7-hydroxy-2H-chromen-2-one]",inhibition at 10 µM,[3],28%
same,inhibition at 10 µM,[4],39%
same,inhibition at 10 µM,[5]; [10],25%
same,solubility at 2 h,[6],196 µM
same,Log k’w (polycratic capacity factor),[7],2.32
CCCN(CCC)Cc1c(O)ccc2c(-c3cc4ccccc4oc3=O)cc(=O)oc12 [Compound 4a],inhibition at 10 µM,[2],29%
same,inhibition at 10 µM,[3],33%
same,inhibition at 10 µM,[4],37%
same,inhibition at 10 µM,[5]; [10],22%
"CCCN(CCC)Cc1c(O)ccc2c(-c3cc4cccc(OC)c4oc3=O)cc(=O)oc12 [Compound 4d, 8-((dipropylamino)methyl)-4-(8-methoxy-2-oxo-2H-chromen-3-yl)-7-hydroxy-2H-chromen-2-one]",inhibition at 10 µM,[2],29%
same,inhibition at 10 µM,[3],43%
same,IC50,[4],< 10 µM and 3.05 µM
same,IC50,[8],0.97 ± 0.2 µM
same,inhibition at 10 µM,[5]; [10],14%
CCCCN(C)Cc1c(O)ccc2c(-c3cc4cc(Cl)ccc4oc3=O)cc(=O)oc12 [Compound 5b],IC50,[2]; [11],1.85 ± 0.11 µM
same,IC50,[3]; [11],~10 µM
same,eeAChE % inhibition,[4],[25 ± 5] %
same,IC50,[8]; [11],~10 µM
same,eqBChE % inhibition,[5]; mean ± SD,[17 ± 7] %
same,mode of inhibition of MAO-A,[1]; Michaelis–Menten and Lineweaver–Burk plots,competitive
same,Ki,"[1]; human MAO-A, competitive inhibition, read-out: inhibition constant (Ki) MAO-A",0.326 µM
same,reversibility of MAO-A inhibition,[1],reversible
"CCCCN(C)Cc1c(O)ccc2c(-c3cc4cccc(OC)c4oc3=O)cc(=O)oc12 [Compound 5d, 8-((butyl(methyl)amino)methyl)-4-(8-methoxy-2-oxo-2H-chromen-3-yl)-7-hydroxy-2H-chromen-2-one]",inhibition at 10 µM,[2],39%
same,IC50,[3],~10 µM
same,IC50,[4],< 10 µM and 7.8 µM
same,inhibition at 10 µM,[5]; [10],40%
COCCN(CCOC)Cc1c(O)ccc2c(-c3cc4cc(Cl)ccc4oc3=O)cc(=O)oc12 [Compound 6b],huMAO-A % inhibition,[2],[45 ± 3] %
same,huMAO-B % inhibition,[3],[35 ± 9] %
same,eeAChE % inhibition,[4],[16 ± 4] %
same,eqBChE inhibition class,[5],i.a. (compounds displaying average % inhibition less than 10% at 10 µM concentration)
"COCCN(CCOC)Cc1c(O)ccc2c(-c3cc4cccc(OC)c4oc3=O)cc(=O)oc12 [Compound 6d, 8-((bis(2-methoxyethyl)amino)methyl)-4-(8-methoxy-2-oxo-2H-chromen-3-yl)-7-hydroxy-2H-chromen-2-one]",inhibition at 10 µM,[2],26%
same,inhibition at 10 µM,[3],31%
same,inhibition at 10 µM,[4],20%
same,inhibition at 10 µM,[5]; [9],< 10%
COc1cccc2cc(-c3cc(=O)oc4c(CN(CC(C)C)CC(C)C)c(O)ccc34)c(=O)oc12 [Compound 7d],huMAO-A % inhibition,[2],[27 ± 3] %
same,huMAO-B % inhibition,[3],[31 ± 2] %
same,IC50,[4],~10 µM
same,eqBChE % inhibition,[5]; mean ± SD,[34 ± 3] %
CN(Cc1ccccc1)Cc1c(O)ccc2c(-c3cc4cc(Cl)ccc4oc3=O)cc(=O)oc12 [Compound 8b],IC50,[2]; [11],~10 µM
same,huMAO-B % inhibition,[3],[38 ± 3] %
same,eeAChE % inhibition,[4],[16 ± 6] %
same,eqBChE inhibition class,[5],i.a. (compounds displaying average % inhibition less than 10% at 10 µM concentration)
COc1cccc2cc(-c3cc(=O)oc4c(CN(C)Cc5ccccc5)c(O)ccc34)c(=O)oc12 [Compound 8d],huMAO-A % inhibition,[2],[31 ± 4] %
same,huMAO-B % inhibition,[3],[42 ± 3] %
same,IC50,[4],~10 µM
same,IC50,[5]; [11],~10 µM
